Measured values: ChEMBL document CHEMBL4673254, “Synthesis and Cytotoxicity Studies of Bioactive Benzofurans from Lavandula agustifolia and Modified Synthesis of Ailanthoidol, Homoegonol, and Egonol” (J Nat Prod, 2020)
Calls of active or inactive are those of the source. The rule behind the calls is not given here.

Legend:
MCF7 [1] = assay: Cytotoxicity against human MCF7 cells assessed as reduction in cell viability at 1.25 to 20 uM after 72 hrs by Hoechst 33342 staining based assay; type: functional; conditions: dose 1.25-20 µM
A549 [2] = assay: Cytotoxicity against human A549 cells assessed as reduction in cell viability at 1.25 to 20 uM after 72 hrs by Hoechst 33342 staining based assay; type: functional; conditions: dose 1.25-20 µM
PC-3 [3] = assay: Cytotoxicity against human PC-3 cells assessed as reduction in cell viability at 1.25 to 20 uM after 72 hrs by Hoechst 33342 staining based assay; type: functional; conditions: dose 1.25-20 µM
HepG2 [4] = assay: Cytotoxicity against human HepG2 cells assessed as reduction in cell viability at 1.25 to 20 uM after 72 hrs by Hoechst 33342 staining based assay; type: functional; conditions: dose 1.25-20 µM
Hep 3B2 [5] = assay: Cytotoxicity against human Hep3B cells assessed as reduction in cell viability at 1.25 to 20 uM after 72 hrs by Hoechst 33342 staining based assay; type: functional; conditions: dose 1.25-20 µM
MCF7 [6] = assay: Induction of apoptosis in human MCF7 cells assessed as increase in cleaved PARP level at 6 uM after 72 hrs by Western blot analysis; type: functional, cell-based
A549 [7] = assay: Induction of apoptosis in human A549 cells assessed as increase in cleaved PARP level at 6 uM after 72 hrs by Western blot analysis; type: functional, cell-based
PC-3 [8] = assay: Induction of apoptosis in human PC-3 cells assessed as increase in cleaved PARP level at 6 uM after 72 hrs by Western blot analysis; type: functional, cell-based
HepG2 [9] = assay: Induction of apoptosis in human HepG2 cells assessed as increase in cleaved PARP level at 6 uM after 72 hrs by Western blot analysis; type: functional, cell-based
Hep 3B2 [10] = assay: Induction of apoptosis in human Hep3B cells assessed as increase in cleaved PARP level at 6 uM after 72 hrs by Western blot analysis; type: functional, cell-based
[11] = target: Cellular tumor antigen p53 (Homo sapiens) (UniProt P04637); assay: Activation of P53 in human MCF7 cells assessed as increase in P53 phosphorylation at ser15 residues at 6 uM after 72 hrs by Western blot analysis; type: cell-based; conditions: filed as activator
Chain of Cellular tumor antigen p53 (Homo sapiens) (P04637 whole entry, looked up): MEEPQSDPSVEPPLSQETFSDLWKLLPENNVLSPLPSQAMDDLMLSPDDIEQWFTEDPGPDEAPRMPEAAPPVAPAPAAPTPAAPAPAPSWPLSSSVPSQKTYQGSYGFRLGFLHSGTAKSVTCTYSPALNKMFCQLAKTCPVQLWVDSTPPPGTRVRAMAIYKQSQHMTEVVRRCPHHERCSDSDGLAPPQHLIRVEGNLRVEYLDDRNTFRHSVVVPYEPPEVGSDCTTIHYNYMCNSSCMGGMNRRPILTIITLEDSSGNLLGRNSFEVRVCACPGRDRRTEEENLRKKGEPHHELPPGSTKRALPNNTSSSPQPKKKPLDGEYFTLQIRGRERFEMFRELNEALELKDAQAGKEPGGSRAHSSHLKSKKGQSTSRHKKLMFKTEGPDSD

[12] = target: Cellular tumor antigen p53 (Homo sapiens) (UniProt P04637); assay: Activation of P53 in human A549 cells assessed as increase in P53 phosphorylation at ser15 residues at 6 uM after 72 hrs by Western blot analysis; type: cell-based; conditions: filed as activator
[13] = system: Cellular tumor antigen p53 (Homo sapiens), P04637 [UNDEFINED MUTATION]; assay: Activation of P53 mutant in human PC-3 cells assessed as increase in P53 phosphorylation at ser15 residues at 6 uM after 72 hrs by Western blot analysis; type: cell-based
Chain of Cellular tumor antigen p53 (Homo sapiens), P04637 [UNDEFINED MUTATION] (P04637 whole entry, looked up, change not shown): as the sequence (P04637 whole entry, looked up) above

[14] = system: Cellular tumor antigen p53 (Homo sapiens), P04637 [UNDEFINED MUTATION]; assay: Activation of P53 mutant in human Hep3B cells assessed as increase in P53 phosphorylation at ser15 residues at 6 uM after 72 hrs by Western blot analysis; type: cell-based
MCF7 [15] = assay: Induction of apoptosis in human MCF7 cells assessed as increase in P53 protein expression at 6 uM after 72 hrs by Western blot analysis; type: functional, cell-based
A549 [16] = assay: Induction of apoptosis in human A549 cells assessed as increase in P53 protein expression at 6 uM after 72 hrs by Western blot analysis; type: functional, cell-based
HepG2 [17] = assay: Induction of apoptosis in human HepG2 cells assessed as increase in P53 protein expression at 6 uM after 72 hrs by Western blot analysis; type: functional, cell-based
PC-3 [18] = assay: Induction of apoptosis in human PC-3 cells assessed as increase in P53 protein expression at 6 uM after 72 hrs by Western blot analysis; type: functional, cell-based
Hep 3B2 [19] = assay: Induction of apoptosis in human Hep3B cells assessed as increase in P53 protein expression at 6 uM after 72 hrs by Western blot analysis; type: functional, cell-based
[20] = target: Cellular tumor antigen p53 (Homo sapiens) (UniProt P04637); assay: Activation of P53 in human MCF7 cells assessed as increase in p21 protein expression at ser15 residues at 6 uM after 72 hrs by Western blot analysis; type: cell-based; conditions: filed as activator
[21] = target: Cellular tumor antigen p53 (Homo sapiens) (UniProt P04637); assay: Activation of P53 in human A549 cells assessed as increase in p21 protein expression at ser15 residues at 6 uM after 72 hrs by Western blot analysis; type: cell-based; conditions: filed as activator
[22] = target: Cellular tumor antigen p53 (Homo sapiens) (UniProt P04637); assay: Activation of P53 in human HepG2 cells assessed as increase in p21 protein expression at ser15 residues at 6 uM after 72 hrs by Western blot analysis; type: cell-based; conditions: filed as activator
[23] = system: Cellular tumor antigen p53 (Homo sapiens), P04637 [UNDEFINED MUTATION]; assay: Activation of P53 mutant in human Hep3B cells assessed as increase in p21 protein expression at ser15 residues at 6 uM after 72 hrs by Western blot analysis; type: cell-based; conditions: filed as activator
[24] = system: Cellular tumor antigen p53 (Homo sapiens), P04637 [UNDEFINED MUTATION]; assay: Activation of P53 mutant in human PC-3 cells assessed as increase in p21 protein expression at ser15 residues at 6 uM after 72 hrs by Western blot analysis; type: cell-based; conditions: filed as activator
[25] = Activation of P53 in human HepG2 cells assessed as increase in P53 phosphorylation at ser15 residues at 6 uM after 72 hrs by Western blot analysis; conditions: filed as activator

SMILES | Activity (MCF7 [1]) | Activity (A549 [2]) | Activity (PC-3 [3]) | Activity (HepG2 [4]) | Activity (Hep 3B2 [5]) | Activity (MCF7 [6]) | Activity (A549 [7]) | Activity (PC-3 [8]) | Activity (HepG2 [9]) | Activity (Hep 3B2 [10]) | Activity [11] | Activity [12] | Activity [13] | Activity [14] | Activity (MCF7 [15]) | Activity (A549 [16]) | Activity (HepG2 [17]) | Activity (PC-3 [18]) | Activity (Hep 3B2 [19]) | Activity [20] | also measured
COc1cc2oc(-c3ccc(O)cc3)cc2cc1CCO | Active | Active | Active | Active | Active | Active | Active | Active | Active | Active | Active | Active | inactive | inactive | Active | Active | Active | inactive | inactive | Active | Activity [21]: Active; Activity [22]: Active; Activity [23]: Active; Activity [24]: Active; Activity [25]: Active
COc1cc(CCO)cc2cc(-c3ccc(O)cc3)oc12 | Active | Active | Active | Active | Active | Active | Active | Active | Active | Active | Active | Active | inactive | inactive | Active | Active | Active | inactive | inactive | Active | Activity [21]: Active; Activity [22]: Active; Activity [23]: Active; Activity [24]: Active; Activity [25]: Active
COc1ccc(-c2cc3cc(CCO)c(OC)cc3o2)cc1 | inactive | inactive | inactive | inactive | inactive | – | – | – | – | – | – | – | – | – | – | – | – | – | – | – | –
COc1cc2oc(-c3ccc(O)cc3)c(C)c2cc1CCO | Active | Active | Active | Active | Active | – | – | – | – | – | – | – | – | – | – | – | – | – | – | – | –
COc1ccc(-c2oc3c(OC)cc(CCO)cc3c2C)cc1 | inactive | inactive | inactive | inactive | inactive | – | – | – | – | – | – | – | – | – | – | – | – | – | – | – | –
COc1ccc(-c2cc3cc(CCO)cc(OC)c3o2)cc1 | inactive | inactive | inactive | inactive | inactive | – | – | – | – | – | – | – | – | – | – | – | – | – | – | – | –
COc1cc(CCO)cc2c(C)c(-c3ccc(O)cc3)oc12 | Active | Active | Active | Active | Active | Active | Active | Active | Active | Active | Active | Active | inactive | inactive | Active | Active | Active | inactive | inactive | Active | Activity [21]: Active; Activity [22]: Active; Activity [23]: Active; Activity [24]: Active; Activity [25]: Active
COc1ccc(-c2oc3cc(OC)c(CCO)cc3c2C)cc1 | inactive | inactive | inactive | inactive | inactive | – | – | – | – | – | – | – | – | – | – | – | – | – | – | – | –
